The values that follow come from patent US6348211B1, “Compositions and methods for treatment of attention deficit disorder and attention deficit/hyperactivity disorder with methylphenidate” (Noven Pharmaceuticals, Inc., priority 1997, dated 2002).

The conditions of data set [1]: among the four enantiomers of methylphenidate; cited from earlier work.
Data set [2] in a line: Degradation of methylphenidate in topical composition in the presence of acid functional groups. It counts as physicochemical. The conditions noted are these: with every 1% increase by weight in acid functional component of the topical composition. The source says: It has been discovered that methylphenidate, and in particular the base form, can be unstable and undergoes degradation in the presence of acid functional groups which are contained in adhesives, enhancers, excipients and other components of the topical composition. The major degradant/metabolite appears to be ritalinic acid, which increases about ten fold with every 1% increase by weight in such acid functional component. Such degradation can greatly reduce the amount of the active enantiomer during storage of the topical composition, thus reducing the amount of active methylphenidate available for drug delivery.

With `COC(=O)[C@H](c1ccccc1)[C@H]1CCCCN1` [d-threo-methylphenidate], the activity of enantiomer result in data set [1] is reported as “significantly active”.

On to `COC(=O)C(c1ccccc1)C1CCCCN1` (centres unmarked) [Methylphenidate], for which, in data set [2], the “increase of major degradant ritalinic acid” value is on record as “about ten fold”.
